Measurements as given in patent publication US12383515B2, “Compositions and methods of use of γ-ketoaldehyde scavengers for treating, preventing or improving nonalcoholic fatty liver disease (NAFLD), NASH, ALD or conditions related to the liver” (MTI Biotech, Inc., priority 2016, dated 2025).
Entries after “also recorded” stand apart in the source; their conditions may differ.

Assays:
mouse hepatocytes = assay: Oxidant mediated cell death induced by t-butylhydroperoxide; assay type: cell-based; details: FIG. 3
From the text: There is considerable interest in identifying appropriate therapeutic interventions aimed at inhibiting the inflammatory processes and interrupting the immunogenic pathways associated with ALD.
This is a remarkable finding given the fact the pathogenesis of oxidative injury is quite complex and multifaceted. […] Obviously, the efficacy of 2-HOBA depends on its accumulation in target tissues, and this was recently supported by pharmacokinetic studies in an in vivo mouse model. […] The levels in the liver were about 10 times higher than in plasma.

HepaRG cells = assay: Ethanol exposure of HepaRG hepatocytes after 2-HOBA pre-treatment; assay type: cell-based, human
C57/BL6J mice = assay: NIAAA ethanol model (10 days ethanol in LDLD + binge) of alcoholic liver injury; assay type: in vivo, mouse; details: for Basophils / WBC / eosinophils, % of WBC / lymphocytes, % of WBC / monocytes, % of WBC: 0.5 g/L in LDLD; for AST: serum
Procedure: 2-HOBA and ethanol were concurrently administered to C57/BL6J mice to establish the efficacy of 2-HOBA in mitigating ethanol-mediated liver dysfunction (increased AST and ALT), reducing γ-KA formation, favorably altering immune responses and stimulating beneficial intracellular signaling pathways. […] 2-HOBA (0.5 g/L in Lieber-DeCarli liquid diet, LDLD) was administered to mice prior to ethanol treatment for 14 days to examine 2-HOBA efficacy in mitigating liver injury. Ethanol (5% v/v) was administered using the NIAAA model (10 days ethanol in LDLD+binge). […] White blood cell and lymphocyte cell counts were reduced while eosinophil and basophil counts were increased with ethanol relative to maltodextrin feeding (Table 1), consistent with other reports of alcoholic liver injury. Such responses were not observed in the presence of 2-HOBA.
An additional cohort of mice were administered a 14-day pretreatment of 2-HOBA (1.0 g/L) prior to administration of ethanol using the NIAAA model. Mice administered ethanol consumed less food and consequently weighed ˜2.5 g less than maltodextrin-fed controls at the end of study.

DIAMOND mice = assay: DIAMOND mouse model of NAFLD/NASH; assay type: in vivo; details: 1 g/L in drinking water, Western diet
Procedure: Twelve 8-wk old male DIAMOND mice were placed on ad libitum high fat diet (Harlan—ENVIGO TD.88317) and water containing glucose (18.9% w/v) and fructose (23.1% w/v); all mice remained on this diet throughout the study protocol. […] The vehicle control group received water without 2-HOBA (with glucose and fructose). Body weight and food intake were measured weekly. At ˜23 wks of age, all animals underwent a glucose tolerance test (GTT) and MRI imaging to assess hepatic fat. For the GTT, animals were fasted for 12 hours and then glucose (2 g/kg bw of a 100 mg/mL glucose in sterile water) was administered by oral gavage. Blood was sampled at 0, 15, 30, 45, 60, 90, and 120 minutes after glucose administration and area under the curve was calculated. Animals were sacrificed at 24 wks of age (12 weeks of 2-HOBA or vehicle treatment). Tissues and serum were collected for analysis.
Serum levels of glucose, alanine transaminase, and aspartate transaminase were measured. […] Significance was set at α=0.05.

cyclooxygenase enzymes = details: cited from earlier work
HepG2 cells = details: varying concentrations of H2O2; cited from earlier work
[1] = 1, 3, and 10 g/L for 7 days; cited from earlier work
[2] = 2-HOBA + ETOH, 2-HOBA 1.0 g/L, 14-day pretreatment
[3] = 2-HOBA + MD, 2-HOBA 1.0 g/L, 14-day pretreatment
[4] = 1 g/L in drinking water, 6 weeks, vs vehicle

For `NCc1ccccc1O` [2-HOBA, 2-Hydroxybenzylamine], the “cell death induced by t-butylhydroperoxide (tBHP)” value (mouse hepatocytes) was “almost completely prevented”, the “reactive oxygen species formation” value (HepaRG cells; 24 hr pre-treatment 0, 250, 500 and 1000 μM, ethanol 0-200 mM, 24 hr, FIG. 4A) was “did not affect” and the “cell death by ethanol” value (HepaRG cells; 24 hr pre-treatment 0, 250, 500 and 1000 μM, ethanol 0-200 mM, 24 hr, FIG. 4B) was “almost completely prevented”. The “ALT levels in culture media” value (HepaRG cells; 24 hr pre-treatment 0, 250, 500 and 1000 μM, ethanol 0-200 mM, 24 hr, FIG. 5A) was “near normalization”, the “AST levels in culture media” value (HepaRG cells; 24 hr pre-treatment 0, 250, 500 and 1000 μM, ethanol 0-200 mM, 24 hr, FIG. 5B) was “near normalization” and the “intensity of ~18 kD anti-D11 cross-reactive (γ-KA adducted) band” value (HepaRG cells; pre-treatment 250 or 500 μM for 24 hr, ethanol, SDS-PAGE, D11 ScFv, FIG. 6) was “restored to levels observed in untreated controls”. The body weight (C57/BL6J mice; 0.5 g/L 2-HOBA in LDLD) was “not significantly impacted”, the food intake (C57/BL6J mice; 0.5 g/L 2-HOBA in LDLD) was “not significantly impacted” and the “increases in serum ALT” value (C57/BL6J mice; 2-HOBA 0.5 g/L) was “did not attenuate”. For the same compound, the “increases in serum AST” value (C57/BL6J mice; 2-HOBA 0.5 g/L) was “did not attenuate”, the “hepatic isofurans (IsoF)” value (C57/BL6J mice; 2-HOBA 1.0 g/L + ETOH, FIG. 8) was “significant reductions; also recorded: ameliorated” and the “hepatic isoprostanes (IsoP)” value (C57/BL6J mice; 2-HOBA 1.0 g/L + ETOH, FIG. 8) was “significant reductions; also recorded: ameliorated”. For the same compound, the kidney isoprostane levels (C57/BL6J mice; 2-HOBA 1.0 g/L + ETOH, P<0.05 versus Con+ETOH) was 1.3 ± 0.1 ng/g, the Basophils (C57/BL6J mice; 2-HOBA + ETOH) was 1.27 ± 0.26^# x10^3/μl and the WBC (C57/BL6J mice; 2-HOBA + ETOH) was 3.11 ± 0.66 x10^3/μl. It also gave an eosinophils, % of WBC (C57/BL6J mice; 2-HOBA + ETOH) of 2.71 ± 0.46%, a lymphocytes, % of WBC (C57/BL6J mice; 2-HOBA + ETOH) of 50.4 ± 4.59% and a monocytes, % of WBC (C57/BL6J mice; 2-HOBA + ETOH) of 6.33 ± 1.11%. For the same compound, the ALT (C57/BL6J mice; 2-HOBA + ETOH, 2-HOBA 0.5 g/L) was 443.7 ± 66.2 U/L, the AST (C57/BL6J mice; 2-HOBA + ETOH, 2-HOBA 0.5 g/L) was 1725.0 ± 300.2 U/L and the “BUN (blood urea nitrogen)” value (C57/BL6J mice; 2-HOBA + ETOH, 2-HOBA 1.0 g/L) was 22.6 ± 1.7 mg/dL. For the same compound, the “CRE (creatinine)” value (C57/BL6J mice; 2-HOBA + ETOH, 2-HOBA 1.0 g/L) was 0.3 ± 0.04 mg/dL, the ALT (C57/BL6J mice; [2]) was 164.4±20.8 U/L and the AST (C57/BL6J mice; [2]) was 676.6±86.7 U/L. For the same compound, the WBC (C57/BL6J mice; 2-HOBA + MD (maltodextrin)) was 6.08 ± 1.05 x10^3/μl, the Basophils (C57/BL6J mice; 2-HOBA + MD) was 0.60 ± 0.14 x10^3/μl and the eosinophils, % of WBC (C57/BL6J mice; 2-HOBA + MD) was 1.79 ± 0.4%. It also gave a lymphocytes, % of WBC (C57/BL6J mice; 2-HOBA + MD) of 58.1 ± 5.45%, a monocytes, % of WBC (C57/BL6J mice; 2-HOBA + MD) of 6.66 ± 0.92% and an ALT (C57/BL6J mice; 2-HOBA + MD, 2-HOBA 0.5 g/L) of 54.3 ± 20.1 U/L. For the same compound, the AST (C57/BL6J mice; 2-HOBA + MD, 2-HOBA 0.5 g/L) was 566.5 ± 34.1 U/L, the “BUN (blood urea nitrogen)” value (C57/BL6J mice; 2-HOBA + MD, 2-HOBA 1.0 g/L) was 34.6 ± 2.9 mg/dL and the “CRE (creatinine)” value (C57/BL6J mice; 2-HOBA + MD, 2-HOBA 1.0 g/L) was 0.3 ± 0.05 mg/dL. For the same compound, the ALT (C57/BL6J mice; [3]) was 127.5 ± 78.59 U/L, the AST (C57/BL6J mice; [3]) was 693.6 ± 173.1 U/L and the hepatic triglyceride content (C57/BL6J mice; ETOH-challenged mice pre-treated with 2-HOBA 1.0 g/L) was “trended to be lower”. The “ethanol responses: reduced white blood cell and lymphocyte counts, increased eosinophil and basophil counts” value (C57/BL6J mice; ethanol relative to maltodextrin feeding, 0.5 g/L 2-HOBA) was “not observed”, the kidney isoprostane formation (C57/BL6J mice; pre-treatment 14 days at 1.0 g/L) was “decreased” and the “liver injury (elevated γ-KAs and liver function enzymes) upon ethanol exposure” value (C57/BL6J mice; pre-treatment with 2-HOBA 1.0 mg/ml (1.0 g/L), 14 days) was “significantly reduces; also recorded: reduced”. The liver weight (DIAMOND mice; FIGS. 15-16) was “trend for a reduction”, the “liver enzyme ALT” value (DIAMOND mice; serum, FIG. 16H) was “significant reduction” and the “liver enzyme AST” value (DIAMOND mice; serum, FIG. 16I) was “significant reduction”. The ALT (STAM mice; [4]) was “trending towards reduction”, the insulin (STAM mice; [4]) was “trending towards reduction” and the lipids (STAM mice; [4]) was “trending towards reduction”. For the same compound, the “liver to body weight ratios” value (STAM mice; [4]) was “significantly reduced”, the liver weight (STAM mice; [4]) was “significantly reduced” and the serum isoprostanes (STAM mice; [4]) was “significantly reduced”. For the same compound, the NAFLD severity (STAM mice; FIG. 12) was “reduce”, the NALP1 (STAM mice; liver) was “decrease” and the “expression of pyruvate dehydrogenase kinase 4 (pdk4)” value (STAM mice; liver) was “significantly decreased”. For the same compound, the “signaling through FOXO1” value (STAM mice; liver immunoblot) was “without significantly altering”, the AKT phosphorylation (STAM mice; liver immunoblot, FIG. 13) was “dramatically increased” and the GSK30 phosphorylation (STAM mice; liver immunoblot, FIG. 13) was “dramatically increased”. For the same compound, the “signaling through ERK” value (STAM mice; liver immunoblot, FIG. 13) was “without significantly altering”, the “signaling through mTOR” value (STAM mice; liver immunoblot, FIG. 13) was “without significantly altering” and the “markers of hepatic insulin sensitivity” value (STAM mice; mouse, in vivo) was “restores”. For the same compound, the NLRP1-inflammasome activation (STAM mice; oral 2-HOBA administration) was “blocked”, the “inhibition of cyclooxygenase enzymes” value (cyclooxygenase enzymes) was “does not inhibit” and the “oxidant mediated cell death” value (HepG2 cells) was “protective effect”. The “levels in the liver relative to plasma” value [1] was “about 10 times”, the “liver levels of 2-HOBA” value [1] was “dose-dependent increases” and the “plasma levels of 2-HOBA” value [1] was “dose-dependent increases”.
